Data as given in ChEMBL document CHEMBL4304774, “Bisubstrate Inhibitors of Nicotinamide N-Methyltransferase (NNMT) with Enhanced Activity” (J Med Chem, 2019).
Active and inactive are the calls of the source. The rule behind the calls is not given here.

Assays:
[1] = molecular target: T1, Nicotinamide N-methyltransferase (Homo sapiens, UniProt P40261); experiment: Inhibition of wild-type human full length NNMT expressed in Escherichia coli BL21(DE3) cells assessed as reduction in 1-methyl-nicotinamide formation pre-incubated for 10 mins followed by AdoMet and nicotinamide addition measured after 30 mins by UHP-HILIC/Q-TOF-MS analysis
T1 sequence (P40261 whole entry): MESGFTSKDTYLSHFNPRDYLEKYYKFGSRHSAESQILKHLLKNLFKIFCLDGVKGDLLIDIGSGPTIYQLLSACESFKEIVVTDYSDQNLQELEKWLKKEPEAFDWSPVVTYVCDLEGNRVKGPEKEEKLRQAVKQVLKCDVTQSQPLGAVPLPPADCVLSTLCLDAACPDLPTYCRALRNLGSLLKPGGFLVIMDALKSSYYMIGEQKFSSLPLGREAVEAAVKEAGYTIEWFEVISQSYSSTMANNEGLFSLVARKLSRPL

HSC-2 [2] = experiment: Antiproliferative activity against human HSC2 cells assessed as reduction in cell viability at 1 to 100 uM measured up to 72 hrs by MTT assay; type: functional, cell-based
HSC-2 [3] = experiment: Antiproliferative activity against human HSC2 cells assessed as reduction in cell viability at 100 uM measured after 72 hrs by MTT assay relative to control; type: functional
HSC-2 [4] = experiment: Antiproliferative activity against human HSC2 cells assessed as reduction in cell viability at 100 uM measured after 48 hrs by MTT assay relative to control; type: functional
HSC-2 [5] = experiment: Antiproliferative activity against human HSC2 cells assessed as reduction in cell viability at 50 uM measured after 48 hrs by MTT assay relative to control; type: functional
HSC-2 [6] = experiment: Antiproliferative activity against human HSC2 cells assessed as reduction in cell viability at 10 uM measured after 48 hrs by MTT assay relative to control; type: functional

COC(=O)c1cccc(CN(CCCCC(N)=O)C[C@H]2O[C@@H](n3cnc4c(N)ncnc43)[C@H](O)[C@@H]2O)c1
IC50 [1]: > 250 µM

NC(=O)CCCN(Cc1cccc(C(=O)O)c1)C[C@H]1O[C@@H](n2cnc3c(N)ncnc32)[C@H](O)[C@@H]1O
IC50 [1]: > 250 µM

NC(=O)c1cccc(CCN(CCC[C@H](N)C(=O)O)C[C@H]2O[C@@H](n3cnc4c(N)ncnc43)[C@H](O)[C@@H]2O)c1
IC50 [1]: 4.36 µM | Activity (HSC-2 [2]): inactive

NC(=O)CCCCN(Cc1cccc(C(=O)O)c1)C[C@H]1O[C@@H](n2cnc3c(N)ncnc32)[C@H](O)[C@@H]1O
IC50 [1]: > 250 µM

NC(=O)c1cccc(CN(CCCCC(=O)O)C[C@H]2O[C@@H](n3cnc4c(N)ncnc43)[C@H](O)[C@@H]2O)c1
IC50 [1]: > 250 µM

Nc1ncnc2c1ncn2[C@@H]1O[C@H](C[C@@H](N)CC[C@H](N)C(=O)O)[C@@H](O)[C@H]1O [SINEFUNGIN]
IC50 [1]: 12.5 µM

Nc1ncnc2c1ncn2[C@@H]1O[C@H](CN(CCC[C@H](N)C(=O)O)Cc2ccc3ccccc3c2)[C@@H](O)[C@H]1O
IC50 [1]: > 250 µM | Activity (HSC-2 [2]): inactive

Nc1ncnc2c1ncn2[C@@H]1O[C@H](CN(CCCC(=O)O)Cc2ccc3ccccc3c2)[C@@H](O)[C@H]1O
IC50 [1]: > 250 µM

Nc1ncnc2c1ncn2[C@@H]1O[C@H](CN(CC[C@H](N)C(=O)O)Cc2ccc3ccccc3c2)[C@@H](O)[C@H]1O
Activity (HSC-2 [3]): 44% | Activity (HSC-2 [4]): 27% | Activity (HSC-2 [5]): 21% | Activity (HSC-2 [6]): 20%

CC(C)N(Cc1cccc(C(N)=O)c1)C[C@H]1O[C@@H](n2cnc3c(N)ncnc32)[C@H](O)[C@@H]1O
IC50 [1]: > 250 µM

Nc1ncnc2c1ncn2[C@@H]1O[C@H](CN(CCCCC(=O)O)Cc2ccc3ccccc3c2)[C@@H](O)[C@H]1O
IC50 [1]: > 250 µM

COC(=O)c1cccc(CN(CCCC(N)=O)C[C@H]2O[C@@H](n3cnc4c(N)ncnc43)[C@H](O)[C@@H]2O)c1
IC50 [1]: > 250 µM

COC(=O)c1cccc(CN(CCCCC(=O)O)C[C@H]2O[C@@H](n3cnc4c(N)ncnc43)[C@H](O)[C@@H]2O)c1
IC50 [1]: > 250 µM

NC(=O)CCCN(Cc1ccc2ccccc2c1)C[C@H]1O[C@@H](n2cnc3c(N)ncnc32)[C@H](O)[C@@H]1O
IC50 [1]: 111 µM

CC(C)N(Cc1cccc(C(=O)O)c1)C[C@H]1O[C@@H](n2cnc3c(N)ncnc32)[C@H](O)[C@@H]1O
IC50 [1]: > 250 µM

NC(=O)CCCCN(Cc1cccc(C(N)=O)c1)C[C@H]1O[C@@H](n2cnc3c(N)ncnc32)[C@H](O)[C@@H]1O
IC50 [1]: > 250 µM

Nc1ncnc2c1ncn2[C@@H]1O[C@H](CN(CCCC(=O)O)Cc2cccc(C(=O)O)c2)[C@@H](O)[C@H]1O
IC50 [1]: > 250 µM

Nc1ncnc2c1ncn2[C@@H]1O[C@H](CN(CCCCC(=O)O)Cc2cccc(C(=O)O)c2)[C@@H](O)[C@H]1O
IC50 [1]: > 250 µM

Nc1ncnc2c1ncn2[C@@H]1O[C@H](CSCC[C@H](N)C(=O)O)[C@@H](O)[C@H]1O [S-ADENOSYLHOMOCYSTEINE]
IC50 [1]: 35.3 µM

CC(C)N(Cc1ccc2ccccc2c1)C[C@H]1O[C@@H](n2cnc3c(N)ncnc32)[C@H](O)[C@@H]1O
IC50 [1]: 130 µM

NC(=O)CCCN(Cc1cccc(C(N)=O)c1)C[C@H]1O[C@@H](n2cnc3c(N)ncnc32)[C@H](O)[C@@H]1O
IC50 [1]: > 250 µM

COC(=O)c1cccc(CN(CCCC(=O)O)C[C@H]2O[C@@H](n3cnc4c(N)ncnc43)[C@H](O)[C@@H]2O)c1
IC50 [1]: > 250 µM

NC(=O)c1cccc(CN(CC[C@H](N)C(=O)O)C[C@H]2O[C@@H](n3cnc4c(N)ncnc43)[C@H](O)[C@@H]2O)c1
Activity (HSC-2 [2]): inactive

NC(=O)c1cccc(CN(CCCC(=O)O)C[C@H]2O[C@@H](n3cnc4c(N)ncnc43)[C@H](O)[C@@H]2O)c1
IC50 [1]: > 250 µM

COC(=O)c1cccc(CN(C[C@H]2O[C@@H](n3cnc4c(N)ncnc43)[C@H](O)[C@@H]2O)C(C)C)c1
IC50 [1]: > 250 µM
